Data set [1] can be described thus: In vivo brain distribution study after i.n. and i.p. administration to mice. Set-up: species or system Male ddY mice. The conditions noted are these: mouse; for Tmax: plasma. The procedure:
For i.n. administration, ANA-TA9 was dissolved in PBS at a concentration of 100 mg/mL. Since the profile of the concentration in the plasma after i.p. administration was similar with that after i.n. administration, i.p. administration served as the control for i.n. administration. The nasal solution was diluted to 10 mg/mL for i.p. administration. Male ddY mice weighing 25 g were purchased from Japan SLC. The animals were maintained under conventional housing conditions. After anesthetization by the inhalation of isoflurane (2%), ANA-TA9 solution (5 μL each) was administered to both nostrils of the mice. The ANA-TA9 solution (100 μL) was administered peritoneally. After making an incision in the abdomen at 5, 15, 30, 45, 60, and 90 min after administration, blood was collected from the postcaval vein. Soon after the blood sampling, the heparinized ice-cold saline was flushed by perfusion from the left ventricle to remove the blood from the cerebral blood vessel. The whole brain was removed; washed with ice-cold saline; and divided into three sections: olfactory bulb, frontal brain, and occipital brain. The tissue concentrations of ANA-TA9 were measured with LC/MS. The plasma and brain concentrations of ANA-TA9 were determined by LC/MS, LC-20A, and LCMS-2020 (SHIMADZU, Kyoto, Japan). Briefly, 100 μL of the plasma were mixed with 1000 μL of methanol. […] To the dissected brain tissue, 100 μL of ice-cold purified water were added, and the mixture was homogenized under ice-cold conditions. To the homogenate, 4000 μL of ice-cold methanol were added. […] The residues were reconstituted with 100 μL of the mobile phase of the chromatography. In the preliminary study, it was confirmed that the effect of rapid degradation of ANA-TA9 on the assay could be excluded by the treatment on the blood and brain tissues mentioned above. Chromatographic separation was performed using a C18 analytical column (TSKgel ODS 100V, 3 μm, 2.0 mm × 100 mm; TOSOH, Tokyo, Japan). The mobile phase was acetonitrile/0.1% acetic acid (10/90), and the flow rate was 0.2 mL/min. ANA-TA9 eluting from the column was detected with mass spectrometry under the positive mode. Nitrogen gas was used for nebulization at a flow rate of 1.5 L/min. Other conditions (temperature and voltage) were set as the default. The calibration curves of ANA-TA9 in the plasma and the brain were determined. […] For the calculation of the direct transport percentage (DTP), the equation by Fukuda M. et al. was slightly modified. The modified equation is as follows:(1) %DTP=(AUCbrain)IN−(AUCbrain)X/(AUCbrain)IN×100 (2) (AUCbrain)X=(AUCbrain)IP/(AUCplasma)IP×(AUCplasma)IN in the above equation, AUCbrain,i.p. and AUCplasma,i.p. are used in place of AUCbrain,i.v. and AUCplasma,i.v. in the original equation by Fukuda M. et al.

Data set [2] can be described thus: Disposition and nasal absorption of ANA-TA9 in rats (plasma pharmacokinetics after i.v. bolus, i.v. infusion and i.n. administration). In kind it is in vivo, Male Wistar/ST rats. The note with it: rat. The method, then: For i.n. administration, ANA-TA9 was dissolved in PBS at a concentration of 100 mg/mL. For intravenous (i.v.) administration, the nasal solution was diluted to 10 mg/mL with PBS. For i.v. infusion, ANA-TA9 was dissolved in PBS to a concentration of 12 mg/mL. The rats were anesthetized through i.p. administration of a mixture of medetomidine (0.15 mg/kg body weight), midazolam (2 mg/kg body weight), and butorphanol (2.5 mg/kg body weight). The right femoral artery was cannulated with polyethylene tubing. ANA-TA9 was injected into the left femoral vein of 3 rats at a dose of 2 mg (200 μL of a 10 mg/mL PBS solution). Those 3 rats nasally received the same dose of ANA-TA9 (20 μL of a 100 mg/mL PBS solution) under anesthesia. For nasal administration, a micropipette was used. After i.n. administration, the animals were kept conscious in a rat cage ([…], Tokyo, Japan) throughout the experiment after recovery from anesthesia. The PBS solution of ANA-TA9 (12 mg/mL) was infused intravenously for 10 min at a 25 μL/min flow rate. The infused dose was 3 mg/rat. At the appropriate time intervals after administration, blood samples were taken, heparinized, and immediately cooled down on ice, followed by centrifugation at 15,000 rpm for 5 min to obtain the plasma. The plasma samples were stored at -40 °C until the assay. In the preliminary study, it was confirmed that ANA-TA9 stored at -40 °C is stable for at least 2 weeks. The plasma and brain concentrations of ANA-TA9 were determined by LC/MS, LC-20A, and LCMS-2020 (SHIMADZU, Kyoto, Japan). Briefly, 100 μL of the plasma were mixed with 1000 μL of methanol. […] To the dissected brain tissue, 100 μL of ice-cold purified water were added, and the mixture was homogenized under ice-cold conditions. To the homogenate, 4000 μL of ice-cold methanol were added. […] The residues were reconstituted with 100 μL of the mobile phase of the chromatography. In the preliminary study, it was confirmed that the effect of rapid degradation of ANA-TA9 on the assay could be excluded by the treatment on the blood and brain tissues mentioned above. Chromatographic separation was performed using a C18 analytical column (TSKgel ODS 100V, 3 μm, 2.0 mm × 100 mm; TOSOH, Tokyo, Japan). The mobile phase was acetonitrile/0.1% acetic acid (10/90), and the flow rate was 0.2 mL/min. ANA-TA9 eluting from the column was detected with mass spectrometry under the positive mode. Nitrogen gas was used for nebulization at a flow rate of 1.5 L/min. Other conditions (temperature and voltage) were set as the default. The calibration curves of ANA-TA9 in the plasma and the brain were determined. […] The area under the plasma concentration-time profile (AUC) after i.v. and i.n. administration was obtained based on the linear trapezoidal rules. In the case of the i.n. application, the concentrations of the last three samples were extrapolated to estimate the area after the last sampling time. The dose was divided by the AUC to obtain the clearance. After normalization of the AUC with each dose, the bioavailability was calculated by the division of the normalized i.n. AUC by the normalized AUC after i.v. infusion.

Where [3] appears, read: male, Wistar/ST, in vivo, inhaled or intranasal, 2 mg.
Where [4] appears, read: male, Wistar/ST, in vivo, iv, 2 mg.
The mark [5] stands for this setting: male, Wistar/ST, in vivo, iv, 3 mg/animal.

The values below come from publication PMC8538057, “Direct Delivery of ANA-TA9, a Peptide Capable of Aβ Hydrolysis, to the Brain by Intranasal Administration” (Pharmaceutics, 2021).

Ends that are not written are not given here. Where only a bound is given, the exact number is not on record here.

In the case of SKGQAYRMI [ANA-TA9], in data set [1] (male, ddY, in vivo, inhaled or intranasal, 1 mg), the tissue level at time at 5 min was 712 ± 54 ng/g. Also, in data set [1] (male, ddY, inhaled or intranasal, 1 mg, i.n., read-out: time of peak plasma concentration, i.n. (converted)), the Tmax is 5 min. In data set [1] (male, ddY, ip, 1 mg, i.p., read-out: time of peak plasma concentration, i.p. (converted)), the Tmax was 5 min. In addition, in data set [1] (i.n.), the “time of peak concentration in the frontal brain, i.n.” value was 30 min; the “time of peak concentration in the occipital brain, i.n.” value is reported as 30 min; the “time of peak concentration in the olfactory bulb, i.n.” value is given as 5 min. In addition, in data set [1] (i.n. vs i.p., from the AUC up to 90 min after administration, mean ± SE of four or five animals), the “DTP (direct transport percentage), olfactory bulb” value stood at 96.3 ± 0.9%. The “time of peak concentration in the olfactory bulb, i.p.” value in data set [1] (i.p.) was 15 min. Also, in data set [1] (in vivo), the “apparent half-life in the olfactory bulb after i.n. administration” value turned out to be 15 min and the “time after i.n. administration at which ANA-TA9 could be detected in the olfactory bulb” value is reported as 60 min. Moreover, in data set [1] (in vivo, ip), the “concentration in the olfactory bulb more than 45 min after i.p. application” value is reported as “below the limit of detection” and the “peak plasma concentration, i.p. relative to i.n. (times higher)” value is “approximately 11 times”. Moreover, the bioavailability in data set [2] (male, Wistar/ST, plasma, inhaled or intranasal, i.n. 2 mg, dose-normalized i.n. AUC divided by normalized AUC after i.v. infusion, mean ± S.E. of three experiments, read-out: F (bioavailability), i.n.) came to 36 ± 4.65%. Moreover, in data set [2] (setting [3]), the Cmax was determined as 0.863 ± 0.187 µg/mL and the Tmax was 1 min. Further, in data set [2] (setting [4]), the half-life is less than 1 min, the level at 0.5 min was determined as 0.575 ± 0.026 µg/mL and the level at 1 min stood at 0.111 ± 0.01 µg/mL. Also, in data set [2] (setting [5]), the AUC is 0.215 µg·h/mL and the clearance came to 260 ± 13.8 mL/min. Moreover, the level at 0.25 h in data set [2] (male, Wistar/ST, in vivo, iv, 3 mg/rat) worked out at 0.172 ± 0.121 µg/mL. Also, in data set [2] (i.n. 2 mg (20 μL of 100 mg/mL PBS solution), plasma, trapezoidal with extrapolation, mean ± S.E. of three experiments), the “AUC, i.n.” value is 3.10 ± 0.782 µg·min/mL. In addition, in data set [2] (in vivo, iv), the “plasma concentration at 20 min (after end of i.v. infusion)” value is reported as “below the limit of detection”.
